In this experiment the target is T1, human olfactory receptor OR7D4 (Homo sapiens, UniProt Q8NG98).
T1 construct: transfected with a plasmid containing CRE-luciferase and a plasmid containing OR7D4; expressed in transfected cells; host or cells: HEK293T stably expressing olfactory chaperone proteins of the RTP family
T1 sequence (Q8NG98 1-312): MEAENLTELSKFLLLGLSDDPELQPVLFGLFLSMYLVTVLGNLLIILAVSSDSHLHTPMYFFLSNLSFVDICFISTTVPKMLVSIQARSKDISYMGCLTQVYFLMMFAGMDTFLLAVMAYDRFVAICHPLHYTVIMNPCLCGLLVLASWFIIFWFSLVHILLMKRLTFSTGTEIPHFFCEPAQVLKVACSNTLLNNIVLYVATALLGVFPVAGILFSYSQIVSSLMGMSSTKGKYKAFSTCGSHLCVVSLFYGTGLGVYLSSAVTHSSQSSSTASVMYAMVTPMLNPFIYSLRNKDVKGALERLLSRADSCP
Briefly: OR7D4 luciferase gene reporter assay (antagonism of agonist-induced activation). It is filed as cell-based. The settings on record: dose-response, luciferase assay; half decrease of the luciferase production obtained without antagonist; androstenone at 31.6 micromolar. The method, then:
Cells were maintained in minimal essential medium (EMEM, Lonza) containing 10% fetal bovine serum (M10). HEK293T stably expressing olfactory chaperone proteins from the RTP family as described in WO 2006/002161 (introduced here as a reference) were generated by transfecting HEK293T cells with expression vector containing the chaperone gene sequences and a resistance gene to puromycin, using Lipofectamine 2000. A recombinant cell population was selected by adding 10 μg/ml of puromycin into the culture medium. Monoclonal populations were further obtained by limit dilution procedure. Briefly, a cell suspension was diluted to contain 1 cell per ml and this dilution was dispatched in poly-D-lysine-coated 96 well plates (200 μl of dilution per well). After 5 days of culture, the presence and number of cell colonies per well was checked under a phase contrast microscope. After 5 additional days of culture, wells containing a single colony were harvested and each collected population was amplified independently.
The 5-alpha-androst-16-ene-3-one, used as an agonist of the human olfactory receptor OR7D4 and the tested molecules were diluted at a concentration of 1 mole/litre (M) into dimethyl sulfoxide (DMSO) to generate stock solutions.
For concentration-response analysis, serial dilutions of the tested molecules were prepared from stock solutions in EMEM plated into 96-well plates.
Briefly, cells were plated on poly-D-lysine-coated 96-well plates (BD Bioscience, Erembodegem-Dorp, Belgium) and transfected with a plasmid containing CRE-luciferase and a plasmid containing OR7D4. Sixteen hours after transfection, the culture medium was replaced by serum-free EMEM containing the tested ligands at a determined concentration. After four hours of incubation at 37° C. degree, cells were lysed and processed for luminescence measurement according to the manufacturer's protocols. Luminescence emission was recorded on a Spectra Max M5 reader (Molecular Devices, Sunnyvale, Calif.). Results were expressed as percentage of the response induced by 10 μM of the adenylate cyclase activator Forskolin.
The ability of the compounds of the invention to inhibit the activity of androstenone on OR7D4 receptor was assessed by the luciferase assay described above.
To determine whether a molecule antagonizes OR7D4, this compound was introduced in the incubation medium of the Luciferase assay described above at a concentration of either 316 μM, 100 μM or 31.6 μM, along with the known activator of the receptor 5α-androst-16-en-3-one at a concentration of 31.6 μM. Molecules were considered as “hits” i.e., as having an antagonist effect on the receptor, if they induced a decrease of at least 50% of the luciferase production elicited upon activation of OR7D4 by 5α-androst-16-en-3-one.
Putative antagonist molecule libraries containing compound 1 and other types of molecules were used to identify antagonist of the receptor OR7D4. The screening campaign was performed on the OR7D4 with a series of 112 putative antagonist molecules. In this screening campaign, compound 1 was identified as a hit.
The compound 1 was further confirmed as antagonist of OR7D4 by performing dose-response analysis using the luciferase assay. Different concentrations of compound 1, ranging from 31.6 nM to 1 mM were tested on HEK293 cell expressing OR7D4 and stimulated with 31.6 μM of 5α-androst-16-en-3-one.
The antagonistic property of compound 1 on OR7D4 was further confirmed by measuring the response of the OR7D4 to 5α-androsta-4,16-dien-3-one in presence of compound 1, using the luciferase assay as describe hereinabove. The observed inhibition was in the same range as the one observed when stimulating the receptor with 5α-androst-16-en-3-one.
To further explore the antagonism on OR7D4, a series of compounds structurally related to compound 1 were synthesized and assessed as antagonists of OR7D4 by dose-response analysis using the luciferase assay. […]
On the technique in general: A reporter such as luciferase makes a cellular process visible.
The compound `CCOC(=O)/C(C)=C/C(=C/c1ccccc1OCC)CC` [Compound 6, ethyl (E)-4-((E)-2-ethoxybenzylidene)-2-methylhex-2-enoate] showed a 50% inhibitory concentration (IC50) of 25 µM.
The value for `CCCCCCC(/C=C(\C)COC)=C\c1ccccc1` [Compound 42, ((E)-2-((E)-3-methoxy-2-methylprop-1-en-1-yl)oct-1-en-1-yl)benzene] was 25 µM.
Turning to `CCOC(=O)/C(C)=C/C=C/c1cccc(OC)c1` [Compound 2, ethyl (2E,4E)-5-(3-methoxyphenyl)-2-methylpenta-2,4-dienoate], the 50% inhibitory concentration (IC50) was found to be 25 µM.
`CCCCCCC(=C\c1ccccc1)/C=C(\C)C(=O)N(C)C` [Compound 28, (E)-4-((E)-benzylidene)-N,N,2-trimethyldec-2-enamide] registered an IC50 of 2 µM.
As for `CCCc1ccccc1/C=C/C=C/C(=O)OCC` [Compound 3, ethyl (2E,4E)-5-(2-propylphenyl)penta-2,4-dienoate], the figure is 50 µM.
Take `CCCCCCC(=C\c1ccccc1)/C=C(\C)C(N)=O` [Compound 23, (E)-4-((E)-benzylidene)-2-methyldec-2-enamide]: the half-maximal inhibitory concentration (IC50) turned out to be 1 µM.
As for `CCCCCCC(=C\c1ccc(C#N)cc1)/C=C(\C)C(=O)OCC` [Compound 7, ethyl (E)-4-((E)-4-cyanobenzylidene)-2-methyldec-2-enoate], the figure is 13 µM; as for `CCCCCCC(/C=C/C=O)=C\c1ccccc1` [Compound 39, (E)-4-((E)-benzylidene)dec-2-enal], 6 µM.
`CCCCCC(/C=C/C(=O)OCC)=C\c1ccc(F)cc1` [Compound 45, ethyl (E)-4-((E)-4-fluorobenzylidene)non-2-enoate] yielded a half-inhibitory concentration (IC50) of 4 µM. Compared with the last compound, the IC50 is about 1.5-fold lower.
In turn, `CCCC(/C=C(\C)CO)=C\c1ccccc1` [Compound 35] yielded an IC50 of 53 µM.
In turn, `CCCCCCC(/C=C(\C)COCC)=C\c1ccccc1` [Compound 43, ((E)-2-((E)-3-ethoxy-2-methylprop-1-en-1-yl)oct-1-en-1-yl)benzene] registered an IC50 of 126 µM.
As for `CCCCCC(/C=C(\C)C=O)=C\c1ccccc1` [Compound 40], the figure is 29 µM; as for `COc1cccc(/C=C/C=C(\C)C=O)c1` [Compound 36, (2E,4E)-5-(3-methoxyphenyl)-2-methylpenta-2,4-dienal], 79 µM; as for `CCCc1ccccc1/C=C/C=C/CO` [Compound 32, (2E,4E)-5-(2-propylphenyl)penta-2,4-dien-1-ol], 126 µM.
As for `CCCCCC(/C=C(\C)CO)=C\c1ccccc1` [Compound 34], the figure is 19 µM; as for `CCCc1ccccc1/C=C/C=C/C=O` [Compound 37, (2E,4E)-5-(2-propylphenyl)penta-2,4-dienal], 126 µM.
As for `CCCCCC(/C=C/C(=O)OCC)=C\c1ccccc1` [Compound 14], the figure is 14 µM; as for `CCOC(=O)/C(C)=C/C(=C/c1ccccc1)C(C)CC(C)(C)C` (stereo not drawn) [Compound 11], 8 µM.
Turning to `CCCCCCC(/C=C(\C)COCC)=C\c1ccc(F)cc1` [Compound 44, 1-((E)-2-((E)-3-ethoxy-2-methylprop-1-en-1-yl)oct-1-en-1-yl)-4-fluorobenzene], the IC50 turned out to be 22 µM.
The value for `CCCCCCC(/C=C/C(=O)O)=C\c1ccccc1` [Compound 22] was 75 µM; that for `CCCCCC(/C=C/C(=O)OC)=C\c1ccc(F)cc1` [Compound 46, methyl (2E,4E)-4-(4-fluorobenzylidene)-2-nonenoate] was 25 µM; that for `CCCCCCC(=C\c1ccc(C#N)cc1)/C=C(\C)C(=O)O` [Compound 19, (E)-4-((E)-4-cyanobenzylidene)-2-methyldec-2-enoic Acid] was 45 µM.
The value for `CCCC(/C=C/C(=O)OCC)=C\c1ccccc1` [Compound 15] was 85 µM.
Take `COc1cccc(/C=C/C=C(\C)CO)c1` [Compound 31, (2E,4E)-5-(3-methoxyphenyl)-2-methylpenta-2,4-dien-1-ol]: the IC50 was 63 µM.
Turning to `CCCCCCC(/C=C/C(N)=O)=C\c1ccccc1` [Compound 27], the half-inhibitory concentration (IC50) is 14 µM.
The value for `CCCCCCC(/C=C/CO)=C\c1ccc(F)cc1` [Compound 33, (E)-4-((E)-4-fluorobenzylidene)dec-2-en-1-ol] was 18 µM; that for `CCCCCCC(=C\c1ccccc1)/C=C(\C)C(=O)O` [Compound 21, 4-benzylidene-2-methyldec-2-enoic Acid] was 62 µM; that for `CCCCCCC(/C=C/C#N)=C\c1ccccc1` [Compound 16, 4-benzylidenedec-2-enenitrile] was 8 µM.
As for `CCCCCCC(=C\c1ccccc1)/C=C(\C)C(=O)NC` [Compound 24, (E)-4-((E)-benzylidene)-N,2-dimethyldec-2-enamide], the figure is 2 µM.
`CCCCCCC(/C=C/C(C)=O)=C\c1ccccc1` [Compound 30, (E)-5-((E)-benzylidene)undec-3-en-2-one] had a half-maximal inhibitory concentration (IC50) of 6 µM.
`C=CCCCCC(=C\c1ccccc1)/C=C(\C)C(=O)OCC` [Compound 8] gave an IC50 of 1 µM.
The value for `CCCCCCC(=C\c1ccccc1)/C=C(\C)C(C)=O` [Compound 29, 5-benzylidene-3-methylundec-3-en-2-one] was 1 µM.
As for `CCCC(/C=C(\C)C=O)=C\c1ccccc1` [Compound 41], the figure is 187 µM; as for `CCOc1ccccc1/C=C(/C=C(\C)C(=O)O)CC` [Compound 20], 32 µM; as for `CCCCCCC(/C=C/C(=O)OCC)=C\c1ccccc1` [Compound 13], 7 µM.
Turning to `CCCCCCC(/C=C(\C)C#N)=C\c1ccccc1` [Compound 17], the IC50 amounted to 12 µM.
As for “(E)-4-((E)-4-fluorobenzylidene)dec-2-enal [Compound 38]”, the figure is 25 µM; as for `CCCCCCC(/C=C/C(=O)OC)=C\c1ccccc1` [Compound 10], 2 µM.
As for `CCCCCCC(/C=C/C(=O)OCC)=C\c1ccc(F)cc1` [Compound 5, ethyl (E)-4-((E)-4-fluorobenzylidene)dec-2-enoate], the figure is 14 µM.
Consider `CCc1cccc(/C=C(C)/C=C/C(=O)N(C)C)c1` [Compound 25, (2E,4E)-5-(3-ethylphenyl)-N,N,4-trimethylpenta-2,4-dienamide], for which the half-maximal inhibitory concentration (IC50) was determined as 126 µM.
The value for `CCCCCc1ccccc1/C=C/C=C/C(=O)OCC` [Compound 4, ethyl (2E,4E)-5-(2-pentylphenyl)penta-2,4-dienoate] was 16 µM; that for `CCOC(=O)/C(C)=C/C(=C/c1ccccc1)CC1CCCC1` [Compound 12] was 8 µM.

The term IC50 denotes the midpoint of a concentration-inhibition curve. A higher IC50 goes with a need for much substance.

Values taken from patent US11382848B2, “Compounds reducing malodour perception and the use thereof” (CHEMCOM S.A., priority 2017, dated 2022).
